Experiments:
Test in all cases: NCI 60 Cell Line Panel growth inhibition
Format in all cases: cell-based, human
[1] = tested on: 786-0; settings: 786-0, Renal cancer, TP53 null/mutant
Description: (§1) The NCI-60 Cell Line Panel was assembled by the National Cancer Institute as an in vitro anticancer drug screen. The panel comprises human cancer cell lines representing nine different tissues of origin: breast, colon, central nervous system, renal, lung, melanoma, ovarian, prostate, and hematogenous. […] See, e.g., Leroy et al. “Analysis of TP53 Mutation Status in Human Cancer Cell Lines: a Reassesment” Hum Mutat 2014 35(6): 756-765.

[2] = tested on: A498; settings: A498, Renal cancer, TP53 wild type
Description: as §1

[3] = tested on: A549/ATCC; settings: Lung-NSCL, TP53 wild type
Description: as §1

[4] = tested on: ACHN; settings: Renal cancer, TP53 wild type
Description: as §1

[5] = tested on: CAKI-1; settings: CAKI-1, Renal cancer, TP53 wild type
Description: as §1

[6] = tested on: CCRF-CEM; settings: Leukemia, TP53 null/mutant
Description: as §1

[7] = tested on: DU-145; settings: DU-145, Prostate cancer, TP53 null/mutant
Description: as §1

[8] = tested on: HCT-116; settings: HCT-116, Colon cancer, TP53 wild type
Description: as §1

[9] = tested on: HCT-15; settings: HCT-15, Colon cancer, TP53 null/mutant
Description: as §1

[10] = tested on: HL-60; settings: HL-60, Leukemia, TP53 null/mutant
Description: as §1

[11] = tested on: HOP-92; settings: HOP-92, Lung-NSCL, TP53 null/mutant
Description: as §1

[12] = tested on: HT29; settings: HT29, Colon cancer, TP53 null/mutant
Description: as §1

[13] = tested on: IGROV-1; settings: IGROV-1, Ovarian cancer, TP53 null/mutant
Description: as §1

[14] = tested on: LOX IMVI; settings: Melanoma, TP53 wild type
Description: as §1

[15] = tested on: M14; settings: M14, Melanoma, TP53 null/mutant
Description: as §1

[16] = tested on: MALME-3M; settings: Melanoma, TP53 wild type
Description: as §1

[17] = tested on: MCF7; settings: MCF7, Breast cancer, TP53 wild type
Description: as §1

[18] = tested on: MDA-MB-435; settings: MDA-MB-435, Melanoma, TP53 null/mutant
Description: as §1

[19] = tested on: NCI-H226; settings: NCI-H226, Lung-NSCL, TP53 null/mutant
Description: as §1

[20] = tested on: NCI-H322M; settings: Lung-NSCL, TP53 null/mutant
Description: as §1

[21] = tested on: NCI-H522; settings: NCI-H522, Lung-NSCL, TP53 null/mutant
Description: as §1

[22] = tested on: NCI/ADR-RES; settings: Ovarian cancer, TP53 null/mutant
Description: as §1

[23] = tested on: OVCAR-4; settings: OVCAR-4, Ovarian cancer, TP53 null/mutant
Description: as §1

[24] = tested on: OVCAR-5; settings: OVCAR-5, Ovarian cancer, TP53 wild type
Description: as §1

[25] = tested on: OVCAR-8; settings: OVCAR-8, Ovarian cancer, TP53 null/mutant
Description: as §1

[26] = tested on: RPMI-8226; settings: RPMI-8226, Leukemia, TP53 null/mutant
Description: as §1

[27] = tested on: SF-295; settings: SF-295, CNS cancer, TP53 null/mutant
Description: as §1

[28] = tested on: SF-539; settings: SF-539, CNS cancer, TP53 null/mutant
Description: as §1

[29] = tested on: SK-MEL-2; settings: SK-MEL-2, Melanoma, TP53 null/mutant
Description: as §1

[30] = tested on: SK-MEL-5; settings: SK-MEL-5, Melanoma, TP53 wild type
Description: as §1

[31] = tested on: SNB-75; settings: SNB-75, CNS cancer, TP53 null/mutant
Description: as §1

[32] = tested on: SR; settings: Leukemia, TP53 wild type
Description: as §1

[33] = tested on: SW-620; settings: SW-620, Colon cancer, TP53 null/mutant
Description: as §1

[34] = tested on: TK-10; settings: TK-10, Renal cancer, TP53 null/mutant
Description: as §1

[35] = tested on: UACC-257; settings: UACC-257, Melanoma, TP53 wild type
Description: as §1

[36] = tested on: UACC-62; settings: UACC-62, Melanoma, TP53 wild type
Description: as §1

[37] = tested on: UO-31; settings: UO-31, Renal cancer, TP53 wild type
Description: as §1

## Nc1ncn([C@@H]2O[C@H](CO)[C@@H](O)C2(F)F)c(=O)n1 [NUC013, 4-amino-1-((2R,4R,5R)-3,3-difluoro-4-hydroxy-5-(hydroxymethyl)tetrahydrofuran-2-yl)-1,3,5-triazin-2(1H)-one]
[1]
  Growth (%) at 10 μM: 26.29%
[2]
  Growth (%) at 10 μM: 38.04%
[3]
  Growth (%) at 10 μM: 37.91%
[4]
  Growth (%) at 10 μM: 7.28%
[5]
  Growth (%) at 10 μM: 27.86%
[6]
  Growth (%) at 10 μM: 23.67%
[7]
  Growth (%) at 10 μM: 43.48%
[8]
  Growth (%) at 10 μM: 29.84%
[9]
  Growth (%) at 10 μM: 52.19%
[10]
  Growth (%) at 10 μM: 25.23%
[11]
  Growth (%) at 10 μM: 34.34%
[12]
  Growth (%) at 10 μM: 70.09%
[13]
  Growth (%) at 10 μM: 56.77%
[14]
  Growth (%) at 10 μM: 34.53%
[15]
  Growth (%) at 10 μM: 15.55%
[16]
  Growth (%) at 10 μM: 67.90%
[17]
  Growth (%) at 10 μM: 20.74%
[18]
  Growth (%) at 10 μM: 53.04%
[19]
  Growth (%) at 10 μM: 52.34%
[20]
  Growth (%) at 10 μM: 70.00%
[21]
  Growth (%) at 10 μM: 86.91%
[22]
  Growth (%) at 10 μM: 42.13%
[23]
  Growth (%) at 10 μM: 94.88%
[24]
  Growth (%) at 10 μM: 86.95%
[25]
  Growth (%) at 10 μM: 49.95%
[26]
  Growth (%) at 10 μM: 39.24%
[27]
  Growth (%) at 10 μM: 77.93%
[28]
  Growth (%) at 10 μM: 22.25%
[29]
  Growth (%) at 10 μM: 104.47%
[30]
  Growth (%) at 10 μM: 70.84%
[31]
  Growth (%) at 10 μM: 64.95%
[32]
  Growth (%) at 10 μM: 14.99%
[33]
  Growth (%) at 10 μM: 51.21%
[34]
  Growth (%) at 10 μM: 91.13%
[35]
  Growth (%) at 10 μM: 77.54%
[36]
  Growth (%) at 10 μM: 47.29%
[37]
  Growth (%) at 10 μM: 39.00%

From patent US20190054103A1, “METHOD OF TREATMENT OF TP53 WILD-TYPE TUMORS WITH 2',2'-DIFLUORO-5-AZA-2'-DEOXYCYTIDINE OR PRODRUGS THEREOF” (priority 2016, published 2019)
